Data from patent US20090142323A1, “METHODS FOR TREATING A DISORDER BY REGULATING GPRC6A” (priority 2007, published 2009).

Experiments:
GPRC6A [1] = target: T1, GPRC6A (Mus musculus, UniProt Q8K4Z6); test: phospho-ERK activation in HEK-293 cells transfected with GPRC6A (immunoblot); assay type: cell-based; design: expressed in transfected cells; host or cells: HEK-293; conditions: for block of GPRC6A-mediated extracellular testosterone stimulated signaling: either phospho-ERK or SRE-luciferase as read-outs; for inhibition of testosterone stimulated GPRC6A-mediated activation of phospho-ERK: 10 μM PD89059, 50 μM Ly294002, 2 μM U73122, 10 μM PP-1
T1 sequence (Q8K4Z6 21-928): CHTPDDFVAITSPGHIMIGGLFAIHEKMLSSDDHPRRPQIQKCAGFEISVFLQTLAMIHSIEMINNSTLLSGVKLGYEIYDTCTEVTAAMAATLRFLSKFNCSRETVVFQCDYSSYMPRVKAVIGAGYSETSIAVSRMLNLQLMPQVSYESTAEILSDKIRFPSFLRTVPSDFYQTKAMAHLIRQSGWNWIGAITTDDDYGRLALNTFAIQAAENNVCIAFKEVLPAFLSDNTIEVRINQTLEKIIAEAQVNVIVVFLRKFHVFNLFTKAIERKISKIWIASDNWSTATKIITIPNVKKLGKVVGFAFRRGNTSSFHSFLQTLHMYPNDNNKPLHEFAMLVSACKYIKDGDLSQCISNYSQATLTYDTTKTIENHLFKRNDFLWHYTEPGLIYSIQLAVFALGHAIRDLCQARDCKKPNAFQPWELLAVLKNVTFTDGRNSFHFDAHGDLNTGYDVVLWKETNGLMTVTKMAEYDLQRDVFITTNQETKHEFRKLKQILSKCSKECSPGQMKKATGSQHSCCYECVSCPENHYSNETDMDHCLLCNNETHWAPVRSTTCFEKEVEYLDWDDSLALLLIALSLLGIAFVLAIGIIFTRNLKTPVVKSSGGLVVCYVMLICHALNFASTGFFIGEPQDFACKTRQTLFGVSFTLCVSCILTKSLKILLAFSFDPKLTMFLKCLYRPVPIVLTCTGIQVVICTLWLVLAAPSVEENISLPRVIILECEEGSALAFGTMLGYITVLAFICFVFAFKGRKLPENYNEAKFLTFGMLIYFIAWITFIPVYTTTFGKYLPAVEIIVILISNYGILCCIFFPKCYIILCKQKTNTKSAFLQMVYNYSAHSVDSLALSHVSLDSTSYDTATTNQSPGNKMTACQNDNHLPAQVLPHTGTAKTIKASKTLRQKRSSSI
Procedure: (§1) Equal amounts of lysates were subjected to 10% SDS-PAGE, and phospho-ERK1/2 levels were determined by immunoblotting using antiphospho-ERK1/2 mitogen-activated protein kinase antibody (Cell Signaling Technology). […] An anti-peptide antibody was raised in a rabbit against a peptide ([…] (SEQ ID NO: 27)) corresponding to a sequence in the extracellular domain of mouse GPRC6A (in exon 1 of mouse GPRC6A gene) produced by Abgent (San Diego, Calif.). For phospho-ERK, the phospho-ERK1/2 levels were determined by immunoblotting using anti-phospho-ERK1/2 mitogen-activated protein kinase antibody (Cell Signaling Technology). Urinary β2-microglobulin was detected by rabbit polyclonal anti-β2-microglobulin antibody (Abcam Inc.). For aromatase expression analysis, the rabbit polyclonal anti-aromatase antibody (Abcam Inc.) and goat anti-rabbit IgG HRP secondary antibody (Santa Cruz Biotechnology Inc.) were used. Mouse anti-Actin antibody (Santa Cruz Biotechnology Inc.) was used for control protein loading.

GPRC6A [2] = target: T1, GPRC6A; test: SRE-luciferase reporter in HEK-293 cells co-transfected with pcDNA3.mGPRC6A; assay type: cell-based; design: expressed in transfected cells; host or cells: HEK-293; conditions: for inhibition of R1881 stimulated GPRC6A-mediated activation of luciferase: SRE-luciferase
Procedure: HEK-293 cells were co-transfected with pcDNA3.mGPRC6A and SRE-luciferase reporter gene plasmid. […] Luciferase activity was assessed after 6 h of stimulation. The luciferase activity in cell extracts was measured using the luciferase assay system (Promega) following the manufacturer's protocol using a BG-luminometer (Gem Biomedical, Inc., Hamden, Conn.).

HEK-293 cells = test: phospho-ERK in non-transfected HEK-293 control cells; assay type: cell-based, human; conditions: control HEK293, no GPRC6A
Procedure: as §1

[3] = target: T2, calcium sensing receptor (CASR) (Rattus norvegicus, UniProt P48442); test: phospho-ERK in HEK-293 cells transfected with calcium sensing receptor; assay type: cell-based; conditions: HEK293 transfected with CASR
T2 construct: expressed in transfected cells; host or cells: HEK-293
T2 sequence (P48442 20-1079): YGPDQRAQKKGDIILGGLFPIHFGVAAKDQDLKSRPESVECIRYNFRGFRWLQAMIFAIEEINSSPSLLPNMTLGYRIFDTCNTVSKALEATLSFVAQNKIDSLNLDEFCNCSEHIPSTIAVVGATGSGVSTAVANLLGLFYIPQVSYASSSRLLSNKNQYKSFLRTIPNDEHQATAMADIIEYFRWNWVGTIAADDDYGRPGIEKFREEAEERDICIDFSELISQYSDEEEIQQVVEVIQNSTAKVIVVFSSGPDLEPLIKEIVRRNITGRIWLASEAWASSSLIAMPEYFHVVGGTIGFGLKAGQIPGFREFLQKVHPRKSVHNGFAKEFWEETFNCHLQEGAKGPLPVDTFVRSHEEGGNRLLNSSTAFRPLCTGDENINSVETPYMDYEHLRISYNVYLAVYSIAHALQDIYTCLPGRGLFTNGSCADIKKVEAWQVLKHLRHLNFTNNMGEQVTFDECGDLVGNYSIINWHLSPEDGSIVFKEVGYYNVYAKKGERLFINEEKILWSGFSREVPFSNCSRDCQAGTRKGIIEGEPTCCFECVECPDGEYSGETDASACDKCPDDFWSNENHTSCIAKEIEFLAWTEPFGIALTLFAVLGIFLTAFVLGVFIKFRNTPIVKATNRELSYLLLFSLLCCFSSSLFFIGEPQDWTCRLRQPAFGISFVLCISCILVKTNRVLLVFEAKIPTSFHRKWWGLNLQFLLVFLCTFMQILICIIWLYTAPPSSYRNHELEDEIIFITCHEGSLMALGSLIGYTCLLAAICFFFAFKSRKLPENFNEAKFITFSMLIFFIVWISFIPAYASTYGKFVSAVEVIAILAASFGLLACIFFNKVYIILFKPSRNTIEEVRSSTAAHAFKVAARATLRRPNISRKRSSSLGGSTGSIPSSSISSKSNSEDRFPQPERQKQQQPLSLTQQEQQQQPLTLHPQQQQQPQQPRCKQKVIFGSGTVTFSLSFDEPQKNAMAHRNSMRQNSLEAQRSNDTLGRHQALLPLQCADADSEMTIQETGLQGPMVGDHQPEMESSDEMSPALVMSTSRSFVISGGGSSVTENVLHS
Procedure: as §1

GPRC6A [4] = target: T1, GPRC6A; test: phospho-Src and phospho-Raf-1 western blot, GPRC6A-mediated; assay type: cell-based; design: expressed in transfected cells
Description: Several physiological processes arising as a result of the rapid action of the Src-Ras-ERK signaling pathway in steroids non-genomic action also have been reported. To define the role of GPRC6A in androgen-mediated cell signaling activation, we examine the Src and Raf-1 are involved in GPRC6A-mediated androgen stimulated intercellular signaling pathway.

[5] = tested on: LNCaP prostate cancer cell line; conditions: 10 nM, within minutes; cited from earlier work
GPRC6A [6] = target: T1, GPRC6A; design: expressed in transfected cells; conditions: in vitro; cited from earlier work
[7] = tested on: bone marrow stromal cells (BMSC); test: phospho-ERK in bone marrow stromal cells from wild-type and GPRC6A-/- mice; assay type: cell-based, mouse
Procedure: The femurs and tibias from 8-week-old wild-type and GPRC6A^−/− mice were dissected, the ends of the bones were cut, and marrow was flushed out with 2 mL of ice-cold a-MEM containing 10% FBS using a needle and syringe. A suspension of bone marrow cells was obtained by repeated aspiration of the cell preparation through a 22-gauge needle, and nucleated cells were counted with a hemocytometer. Cells were seeded into 6-well plates at a density of 3×10^7 cells/mL and cultured for three days in a-MEM supplemented with 10% FBS, 100 kU/L of sodium penicillin G and 100 mg/L of streptomycin sulfate in a humidified incubator with 5% CO2 and 95% air at a temperature of 37° C. On day 3, all nonadherent cells were then removed with the first medium change and then the adherent cells (representing bone marrow-derived mesenchymal stem cells, BMSCs) were grown for additional periods of up 3 days in the same medium. After overnight quiescence, the cells were stimulated for 5 minutes by testosterone and p-estradiol at the concentrations as indicated.

osteoblastic cells = conditions: 10 nM; cited from earlier work
[8] = HEK-293 cells transfected with GPRC6A
[9] = BMSC from GPRC6A-/- mice, testosterone up to 80 nM

Compound: CC(=O)[C@H]1CC[C@H]2[C@@H]3CCC4=CC(=O)CC[C@]4(C)[C@H]3CC[C@]12C [progesterone]
- GPRC6A-mediated activation of phospho-ERK (GPRC6A [1]; concentrations up to 80 nM): no effect

Compound: CC(C)CCC[C@@H](C)[C@H]1CC[C@H]2[C@@H]3CC=C4C[C@@H](O)CC[C@]4(C)[C@H]3CC[C@]12C [cholesterol]
- GPRC6A-mediated activation of phospho-ERK (GPRC6A [1]; [8]): stimulated the GPRC6A-mediated activation of phospho-ERK

Compound: C=C1/C(=C\C=C2/CCC[C@]3(C)[C@@H]([C@H](C)CCCC(C)(C)O)CC[C@@H]23)C[C@@H](O)C[C@@H]1O [1,25(OH)2Vit D3]
- GPRC6A-mediated activation of phospho-ERK (GPRC6A [1]; [8]): stimulated the GPRC6A-mediated activation of phospho-ERK

Compound: C[C@]12CC[C@@H]3c4ccc(O)cc4CC[C@H]3[C@@H]1CC[C@@H]2O [17p-estradiol]
- GPRC6A-mediated activation of phospho-ERK (GPRC6A [1]; [8]): stimulated the GPRC6A-mediated activation of phospho-ERK
- concentration required to activate GPRC6A (phosphorylation of ERK) (GPRC6A [1]; [8]): 60 to 80 nM

Compound: C[C@]1(O)CC[C@H]2[C@@H]3CCC4=CC(=O)CCC4=C3C=C[C@@]21C [R1881]
- GPRC6A mediated activation of luciferase (GPRC6A [2]; SRE-luciferase reporter, HEK-293): stimulated the GPRC6A mediated activation of luciferase
- GPRC6A-mediated activation of phospho-ERK (GPRC6A [1]; [8]): stimulated extracellular signal-regulated kinase phosphorylation (phospho-ERK) in a dose-dependent fashion
- phospho-ERK response (HEK-293 cells): did not responded
- phospho-ERK response [3]: did not responded
- GPRC6A-mediated activation of phospho-Raf-1 (GPRC6A [4]): stimulated
- GPRC6A-mediated activation of phospho-Src (GPRC6A [4]): stimulated GPRC6A-mediated activation of phospho-Src
- Src kinase activity [5]: stimulation of Src kinase activity

Compound: Cn1cc(C2=C(c3cn(CCCSC(=N)N)c4ccccc34)C(=O)NC2=O)c2ccccc21 [Ro31-8220]
- inhibition of R1881 stimulated GPRC6A-mediated activation of luciferase (GPRC6A [2]): inhibited
- block of GPRC6A-mediated extracellular testosterone stimulated signaling (GPRC6A [1]): blocked

Compound: osteocalcin
- functional responses of GPRC6A to extracellular calcium (GPRC6A [6]): enhance the functional responses of GPRC6A to extracellular calcium

Compound: COc1cccc(-c2cc(=O)c3ccccc3o2)c1N [PD89059]
- inhibition of R1881 stimulated GPRC6A-mediated activation of luciferase (GPRC6A [2]): inhibited
- inhibition of testosterone stimulated GPRC6A-mediated activation of phospho-ERK (GPRC6A [1]): inhibited
- block of GPRC6A-mediated extracellular testosterone stimulated signaling (GPRC6A [1]): blocked

Compound: [Ca+2] [extracellular calcium, calcium]
- stimulation of phospho-ERK in BMSC [7, 9]: failed to responds
- stimulation of phospho-ERK in BMSC ([7]; BMSC from wild-type mice): stimulation of ERK phosphorylation

Compound: pertussis toxin
- block of testosterone and β-estradiol stimulated activation of phospho-ERK (GPRC6A [1]; 100 ng/ml PTx, stimuli at 50 nM): significantly blocked

Compound: COc1ccc2c(c1)CC[C@@H]1[C@@H]2CC[C@]2(C)[C@@H](NCCCCCCN3C(=O)C=CC3=O)CC[C@@H]12 [U73122]
- inhibition of testosterone stimulated GPRC6A-mediated activation of phospho-ERK (GPRC6A [1]): inhibited

Compound: C[C@]12CCC(=O)C[C@@H]1CC[C@@H]1[C@@H]2CC[C@]2(C)[C@@H](O)CC[C@@H]12 [DHT]
- Akt activity (osteoblastic cells): stimulation of Akt activity

Compound: COc1cccc([C@@H](C)NCCCc2ccccc2Cl)c1 [NPS-R568]
- stimulation of phospho-ERK in BMSC [7, 9]: failed to responds
- stimulation of phospho-ERK in BMSC ([7]; BMSC from wild-type mice): stimulation of ERK phosphorylation

Compound: C[C@]12CC[C@H](O)CC1=CC[C@@H]1[C@@H]2CC[C@]2(C)C(=O)CC[C@@H]12 [DHEA, Dehydroandrosterone]
- GPRC6A-mediated activation of phospho-ERK (GPRC6A [1]; [8]): stimulated the GPRC6A-mediated activation of phospho-ERK

Compound: Cc1ccc(-c2nn(C(C)(C)C)c3ncnc(N)c23)cc1 [PP-1]
- inhibition of R1881 stimulated GPRC6A-mediated activation of luciferase (GPRC6A [2]): inhibited
- inhibition of testosterone stimulated GPRC6A-mediated activation of phospho-ERK (GPRC6A [1]): inhibited
- block of GPRC6A-mediated extracellular testosterone stimulated signaling (GPRC6A [1]): blocked
